Laboratory results taken from US5834506A, “Dihydropyrones with improved antiviral activity” (Warner-Lambert Company, priority 1997, dated 1998).
Where two headings read alike, the source gives them in different places.

Columns and labels:
[1] = target: T1, HIV-1 protease (Human immunodeficiency virus type 1 group M subtype B, UniProt P04585); assay: biochemical; conditions: read-out: Inhib of HIV-Protease IC50
T1 construct: Recombinant HIV-1 protease (>96% purity); purchased Bachem Bioscience Inc. (King of Prussia, PA)
Source text: The testing of specific 5,6-dihydropyrones as inhibitors of the HIV aspartyl protease, based on the study of the hydrolysis of an undecapeptide enzyme substrate, and the testing of the 5,6-dihydropyrones as inhibitors of viral growth and infectivity, based on the study of infection of H9 cell lines by the HIV-1iiib strain, are also disclosed. […] The methods employed follow the procedures of Tummino, et al. (Archives of Biochemistry and Biophysics 1995, 316, 523).
(§1) The compounds of the present invention were evaluated for their in vitro inhibition of HIV-1 protease and for their antiviral efficacy in HIV infected lymphocytes.
Recombinant HIV-1 protease (>96% purity) and HIV protease substrate III (the undecapeptide H-His-Lys-Ala-Arg-Val-Leu-Nph-Glu-Ala-Nle-Ser-NH2,>97% purity) were purchased from Bachem Bioscience Inc. (King of Prussia, PA).
The methods employed follow the procedures of Tummino, et al. (Archives of Biochemistry and Biophysics 1995, 316, 523). […] (total volume, 100 μl). […] The final inhibitor concentrations used were 0 (0.1, 0.2, in some experiments), 0.5, 1, 2, 5, 10, 20, 50, and 100 μM. The solution was mixed, incubated for 5 minutes and the reaction quenched by addition of trifluoracetic acid, 2% final. The (leu-p-nitro-phe) bond of the substrate is cleaved by the enzyme and substrate and products separated by reverse-phase HPLC. Absorbance was measured at 220 nm, peak areas determined, and percentage conversion to product used to calculate percentage control (=[% conversion (+inhibitor)/% conversion (-inhibitor)]×100).

[2] = Cellular toxicity in uninfected CEM cells (TC50); assay type: cell-based; conditions: human, inhibits 50% of the viability of uninfected cells
Experimental: (§2) Compounds were tested in lymphocyte derived CEM cells using the XTT cytopathic procedures and were performed at Southern Research Institute (Buckheit, et. al. Antiviral Res. 1993, 21, 247; see also Weislow, et al. J Nat. Cancer Inst., 1989, 81, 577). Compound concentrations were 0.32, 1, 3.2, 10, 32 and 100 uM. The EC50 represents the concentration of agent which reduces HIV cytopathic effects 50% relative to untreated control. EC95 represents the concentration of agent protecting the cells 95% relative to untreated control. Cellular toxicity of the agents are estimated from the TC50 which represents the concentration of the agent which inhibits 50% of the viability of uninfected cells.

[3] = test system: HIV in lymphocyte derived CEM cells; assay: Cellular Infection Assay, antiviral efficacy in HIV infected CEM cells (XTT cytopathic procedure); assay type: cell-based; conditions: Human immunodeficiency virus 1, CCRF-CEM; for EC95: protecting the cells 95% relative to untreated control; for EC50: read-out: Antiviral Efficacy EC50
Experimental: as §1, §2

[4] = 6.0 nM HIV-1 protease, 40 μM substrate III, 37° C., 5 minutes
[5] = CEM cells, reduces HIV cytopathic effects 50% relative to untreated control

IC50 [1, 4] [µM]	EC50 [3, 5] [µM]	IC50 [1] [µM]	Structure (SMILES)	CC50 [2] [µM]	EC95 ([3]; CEM cells) [µM]	EC50 [3] [µM]
0.0021	4.8		Cc1cc(SC2=C(O)CC(CCc3cccc(O)c3)(CCc3cccc(O)c3)OC2=O)c(C(C)(C)C)cc1CO [Example 21, 3-(2-tert-Butyl-4-hydroxymethyl-5-methyl-phenylsulfanyl)-4-hydroxy-6,6-bis-[2-(3-hydroxy-phenyl)ethyl]-5,6-dihydro-pyran-2-one]	66	9.3	
0.0034	2		COc1cc(CCC2(CCc3ccc(O)c(OC)c3)CC(O)=C(Sc3cc(C)c(OCCO)cc3C(C)(C)C)C(=O)O2)ccc1O [Example 23, 3-[2-tert-Butyl-4-(2-hydroxy-ethoxy)-5-methyl-phenylsulfanyl]-4-hydroxy-6,6-bis [2-(4-hydroxy-3-methoxy-phenyl)-ethyl]-5,6-dihydro-pyran-2-one]	61	7.9	
0.0071	2.3		Cc1cc(SC2=C(O)CC(C)(CCc3ccc(O)cc3)OC2=O)c(C(C)(C)C)cc1OS(=O)(=O)N1CCN(C)CC1 (centres unmarked) [Example 31, 4-Methyl-piperazine-1-sulfonic acid 5-tert-butyl-4-{4-hydroxy-6-[2-(4-hydroxy-phenyl)-ethyl]-6-methyl-2-oxo-5,6-dihydro-2H-pyran-3-ylsulfanyl}-2-methyl-phenyl ester]	> 100	8.4	
0.0016	4.7		Cc1cc(SC2=C(O)CC(CCc3ccc(O)cc3)(c3ccccc3)OC2=O)c(C(C)(C)C)cc1CO (centres unmarked) [Example 36, 3-(2-tert-Butyl-4-hydroxymethyl-5-methyl-phenylsulfanyl)-4-hydroxy-6-[2-(4-hydroxy-phenyl)-ethyl]-6-phenyl-5,6-dihydro-pyran-2-one]	> 100	20	
	6.1	0.0025	Cc1cc(SC2=C(O)CC(CCc3cccc(O)c3)(c3ccccc3)OC2=O)c(C(C)(C)C)cc1CO (centres unmarked) [Example 37, 3-(2-tert-Butyl-4-hydroxymethyl-5-methyl-phenylsulfanyl)-4-hydroxy-6-[2-(3-hydroxy-phenyl)-ethyl]-6-phenyl-5,6-dihydro-pyran-2-one]	> 100		
0.0019	< 0.3		Cc1cc(SC2=C(O)CC(CCc3cccc(O)c3)(C3CCCC3)OC2=O)c(C(C)(C)C)cc1CO (centres unmarked) [Example 39, 3-(2-tert-Butyl-4-hydroxymethyl-5-methyl-phenylsulfanyl)-6-cyclopentyl-4-hydroxy-6-[2-(3-hydroxy-phenyl)-ethyl]-5,6-dihydro-pyran-2-one]	> 100	0.6	
0.012	5.4		Cc1cc(SC2=C(O)CC(CCc3ccccc3)(c3ccc(OCCO)cc3)OC2=O)c(C(C)(C)C)cc1OS(=O)(=O)N1CCN(C)CC1 (centres unmarked) [Example 46]	58	9.8	
0.021	2.8		Cc1cc(SC2=C(O)CC(CCc3ccc(O)cc3)(C(C)C)OC2=O)c(C(C)(C)C)cc1NC(=O)c1ccccc1 (centres unmarked) [Example 58]	66	24	
0.0031	1		Cc1cc(SC2=C(O)CC(CCc3ccc4c(c3)OCO4)(C(C)C)OC2=O)c(C(C)(C)C)cc1CO (centres unmarked) [Example 61]	78	15	
0.0031	0.6		Cc1cc(SC2=C(O)CC(CCc3ccc(O)cc3)(C3CCCC3)OC2=O)c(C(C)(C)C)cc1CO (centres unmarked) [Example 62]	> 100	2.5	
0.0037	2.4		Cc1cc(SC2=C(O)CC(C)(CCc3ccc(O)cc3)OC2=O)c(C(C)(C)C)cc1NS(=O)(=O)c1ccc(F)cc1 (centres unmarked) [Example 71]	93	8.6	
0.0087	1.8		Cc1cc(SC2=C(O)CC(CCc3ccc(O)cc3)(C(C)C)OC2=O)c(C(C)(C)C)cc1NS(=O)(=O)c1cccs1 (centres unmarked) [Example 77]	> 100	5.2	

Second part, the compound before the results:

Structure (SMILES)	IC50 [1, 4] [µM]	EC50 [3, 5] [µM]	IC50 [1] [µM]	CC50 [2] [µM]	EC95 ([3]; CEM cells) [µM]	EC50 [3] [µM]
Cc1cc(SC2=C(O)CC(CCc3cccc(O)c3)(CCc3cccc(O)c3)OC2=O)c(C(C)(C)C)cc1OS(=O)(=O)N(C)C [Example 22, Dimethyl-sulfamic acid 5-tert-butyl-4-{4-hydroxy-6,6-bis-[2-(3-hydroxy-phenyl)-ethyl]-2-oxo-5,6-dihydro-2H-pyran-3-yisulfanyl}-2-methyl-phenyl ester]	0.009	2.3		66	8.3	
Cc1cc(SC2=C(O)CC(CCc3ccccc3)(c3ccc(OCCN4CCNCC4)cc3)OC2=O)c(C(C)(C)C)cc1OS(=O)(=O)N(C)C (centres unmarked) [Example 26, Dimethyl-sulfamic acid 5-tert-butyl-4-{4-hydroxy-2-oxo-6-phenethyl-6-[4-(2-piperazin-1-yl-ethoxy)-phenyl]-5,6-dihydro-2H-pyran-3-ylsulfanyl}-2-methyl-phenyl ester]	0.0051			> 100	9.3	5.1
CCNS(=O)(=O)Oc1cc(C(C)(C)C)c(SC2=C(O)CC(CCc3ccc(O)cc3)(CCc3ccc(O)cc3)OC2=O)cc1C [Example 28]	0.0013	5.5		67	9.4	
CCNS(=O)(=O)Oc1cc(C(C)(C)C)c(SC2=C(O)CC(CCc3ccc(N)cc3)(CCc3ccc(N)cc3)OC2=O)cc1C [Example 29, Ethyl-sulfamic acid 5-tert-butyl-4-{6,6-bis-[2-(4-amino-phenyl)-ethyl]-4-hydroxy-2-oxo-5,6-dihydro-2H-pyran-3-ylsulfanyl}2-methyl-phenyl ester]	0.0018	1.2		66	2.9	
Cc1cc(SC2=C(O)CC(CCc3ccc(O)cc3)(CCc3ccc(O)cc3)OC2=O)c(C(C)(C)C)cc1OS(=O)(=O)N1CCN(C)CC1 [Example 30, 4-Methyl-piperazine-1-sulfonic acid 5-tert-butyl-4-{4-hydroxy-6,6-bis-[2-(4-hydroxy-phenyl)-ethyl]-2-oxo-5,6-dihydro-2H-pyran-3-ylsulfanyl}-2-methyl-phenyl ester]	0.0055	5		66	9.3	
Cc1ccc(C(C)(C)C)c(SC2=C(O)CC(CCc3ccccc3)(c3ccc(OCCN4CCNCC4)cc3)OC2=O)c1 (centres unmarked) [Example 35, 3-(2-tert-Butyl-5-methyl-phenylsulfanyl)-4-hydroxy-6-phenethyl-6-[4-(2-piperazin-1-yl-ethoxy)-phenyl]-5,6-dihydro-pyran-2-one]	0.0063	3.5		84	8	
Cc1cc(SC2=C(O)C[C@@](CCc3ccc(O)cc3)(C(C)C)OC2=O)c(C(C)(C)C)cc1CO [Example 38, (S)-3-(2-tert-Butyl-4-hydroxymethyl-5-methyl-phenylsulfanyl)-4-hydroxy-6-[2-(4-hydroxy-phenyl)-ethyl]-6-isopropyl-5,6-dihydro-pyran-2-one (+)]		< 0.3	0.001	> 100	1	
Cc1cc(SC2=C(O)CC(C)(CCc3ccc(O)cc3)OC2=O)c(C(C)(C)C)cc1OS(N)(=O)=O (centres unmarked) [Example 43]	0.0018	5.2		69	9.4	
CCNS(=O)(=O)Oc1cc(C(C)(C)C)c(SC2=C(O)CC(CCc3ccc(O)c(OC)c3)(c3ccc(OCCO)cc3)OC2=O)cc1C (centres unmarked) [Example 48]	0.0024	6.9		> 100	26	
Cc1cc(SC2=C(O)CC(CCc3ccc(O)cc3)(C(C)C)OC2=O)c(C(C)(C)C)cc1OS(=O)(=O)N1CCN(C)CC1 (centres unmarked) [Example 67]		0.5	0.0031	> 100	2	
Cc1cc(SC2=C(O)CC(C)(CCc3ccc(O)cc3)OC2=O)c(C(C)(C)C)cc1NC(=O)c1ccc(C#N)cc1 (centres unmarked) [Example 68]	0.056	16		> 100	30	
Cc1cc(SC2=C(O)CC(CCc3ccc(N)cc3C)(C3CCCCC3)OC2=O)c(C(C)(C)C)cc1CO (centres unmarked) [Example 72]	0.0044	0.5		66	8.5	
